In PubChem BioAssay (NCI) one finds TGI data, which are given here for twelve compounds.

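Assay format: 96-well plates, 48-hour exposure. TGI marks complete inhibition of growth.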 Where only a bound is given, the exact number is not on record here.

The first assay relates to MCF7 breast. The assay can be described thus: inhibition of tumour cell growth, NCI panel, 48 h.
As to `COc1ccc(C(OCC2OC(n3cc(C)c(=O)[nH]c3=O)CC2n2cc(Cn3cc(Br)c(=O)[nH]c3=O)nn2)(c2ccccc2)c2ccccc2)cc1` (stereo unspecified), the TGI is greater than 100 µM.
The same measure, in the same setting: then `CSc1ncnc2c1cnn2CCCCO`, with greater than 100 µM; and `COc1ccc(OC)c(C2Cc3cnc4nc(N)nc(N)c4c3C2)c1` (stereo unspecified), with greater than 100 µM.
On to `CC(NNC(=O)CC(=O)N(C(=O)c1ccccc1)c1ccc(Cl)cc1)c1cc2ccccc2oc1=O` (stereo unspecified), for which the TGI is greater than 10 µM.
In turn, `O=[N+]([O-])c1ccc(S(=O)(=O)N=Ic2ccccc2)cc1` returned a TGI greater than 100 µM.
Consider `CCOC(=O)C1=C(N)Oc2ccc(Br)cc2C1C(C#N)C(=O)OCC` (stereo unspecified), for which the TGI stood at 89.4 µM.
Regarding `NCCCNCCCCNCCCN`, the TGI stood at 13.1 µM.
`O=c1c2c(-c3ccccc3)onc2n(-c2ccccc2)c(=O)n1-c1ccccc1` gave a TGI greater than 100 µM.
Compound `CCOC(=O)c1cc(C2(O)CCN(CC(C)CC)C2=O)c(-c2cc(C)no2)[nH]1` (stereo unspecified) came in with a TGI greater than 100 µM.

Another assay deals with HCT-15 colon. Put plainly: inhibition of tumour cell growth, NCI panel, 48 h.
`Cc1ccc(-c2c3c(n(C4OC(CO)C(O)C(O)C4O)c(=S)c2C#N)CC(C)(C)CC3=O)cc1` (stereo unspecified): the TGI is greater than 100 µM.
On to `CCOC(=O)c1csc(NC(=O)CN2CCN(C)CC2)n1`, for which the TGI is greater than 100 µM.
`COc1ccc(CN(Cc2ccc(OC)cc2)C(=O)CC2(O)C=CCC2)cc1` (stereo unspecified) came in with a TGI greater than 100 µM.
As for `COc1ccc(C(OCC2OC(n3cc(C)c(=O)[nH]c3=O)CC2n2cc(Cn3cc(Br)c(=O)[nH]c3=O)nn2)(c2ccccc2)c2ccccc2)cc1` (stereo unspecified), the TGI was greater than 100 µM.
On to `CSc1ncnc2c1cnn2CCCCO`, for which the TGI was greater than 100 µM.
In the case of `COc1ccc(OC)c(C2Cc3cnc4nc(N)nc(N)c4c3C2)c1` (stereo unspecified), the TGI was greater than 100 µM.
Take `CC(NNC(=O)CC(=O)N(C(=O)c1ccccc1)c1ccc(Cl)cc1)c1cc2ccccc2oc1=O` (stereo unspecified): the TGI is greater than 10 µM.
With `O=[N+]([O-])c1ccc(S(=O)(=O)N=Ic2ccccc2)cc1`, the TGI was greater than 100 µM.
Still for that read-out and setting: in the case of `CCOC(=O)C1=C(N)Oc2ccc(Br)cc2C1C(C#N)C(=O)OCC` (stereo unspecified) it was 40.9 µM.
`NCCCNCCCCNCCCN` came in with a TGI of 7.63 µM.
Consider `O=c1c2c(-c3ccccc3)onc2n(-c2ccccc2)c(=O)n1-c1ccccc1`, for which the TGI was 39.1 µM.
Regarding `CCOC(=O)c1cc(C2(O)CCN(CC(C)CC)C2=O)c(-c2cc(C)no2)[nH]1` (stereo unspecified), the TGI was greater than 100 µM.

The next assay relates to ACHN renal. The assay can be described thus: inhibition of tumour cell growth, NCI panel, 48 h.
As to `Cc1ccc(-c2c3c(n(C4OC(CO)C(O)C(O)C4O)c(=S)c2C#N)CC(C)(C)CC3=O)cc1` (stereo unspecified), the TGI is greater than 100 µM.
Regarding `CCOC(=O)c1csc(NC(=O)CN2CCN(C)CC2)n1`, the TGI is greater than 100 µM.
`COc1ccc(CN(Cc2ccc(OC)cc2)C(=O)CC2(O)C=CCC2)cc1` (stereo unspecified) yielded a TGI greater than 100 µM.
As for `COc1ccc(C(OCC2OC(n3cc(C)c(=O)[nH]c3=O)CC2n2cc(Cn3cc(Br)c(=O)[nH]c3=O)nn2)(c2ccccc2)c2ccccc2)cc1` (stereo unspecified), the TGI was greater than 100 µM.
Compound `CSc1ncnc2c1cnn2CCCCO` gave a TGI greater than 100 µM.
The compound `COc1ccc(OC)c(C2Cc3cnc4nc(N)nc(N)c4c3C2)c1` (stereo unspecified) registered a TGI greater than 100 µM.
In turn, `CC(NNC(=O)CC(=O)N(C(=O)c1ccccc1)c1ccc(Cl)cc1)c1cc2ccccc2oc1=O` (stereo unspecified) yielded a TGI greater than 10 µM.
Take `O=[N+]([O-])c1ccc(S(=O)(=O)N=Ic2ccccc2)cc1`: the TGI was greater than 100 µM.
On the same count and under the same terms, in the case of `CCOC(=O)C1=C(N)Oc2ccc(Br)cc2C1C(C#N)C(=O)OCC` (stereo unspecified) it was 33.6 µM.
Still for that read-out and setting: then `NCCCNCCCCNCCCN`, with 9.22 µM.
`O=c1c2c(-c3ccccc3)onc2n(-c2ccccc2)c(=O)n1-c1ccccc1` had a TGI greater than 100 µM.

A further assay deals with MALME-3M melanoma. The assay can be described thus: inhibition of tumour cell growth, NCI panel, 48 h.
`Cc1ccc(-c2c3c(n(C4OC(CO)C(O)C(O)C4O)c(=S)c2C#N)CC(C)(C)CC3=O)cc1` (stereo unspecified): the TGI was greater than 100 µM.
On to `CCOC(=O)c1csc(NC(=O)CN2CCN(C)CC2)n1`, for which the TGI is greater than 100 µM.
On the same count and under the same terms, then `COc1ccc(CN(Cc2ccc(OC)cc2)C(=O)CC2(O)C=CCC2)cc1` (stereo unspecified), with greater than 100 µM; and `COc1ccc(C(OCC2OC(n3cc(C)c(=O)[nH]c3=O)CC2n2cc(Cn3cc(Br)c(=O)[nH]c3=O)nn2)(c2ccccc2)c2ccccc2)cc1` (stereo unspecified), with greater than 100 µM; and `CSc1ncnc2c1cnn2CCCCO`, with greater than 100 µM.
`COc1ccc(OC)c(C2Cc3cnc4nc(N)nc(N)c4c3C2)c1` (stereo unspecified) displayed a TGI of 47.3 µM.
Compound `CC(NNC(=O)CC(=O)N(C(=O)c1ccccc1)c1ccc(Cl)cc1)c1cc2ccccc2oc1=O` (stereo unspecified) displayed a TGI greater than 10 µM.
`O=[N+]([O-])c1ccc(S(=O)(=O)N=Ic2ccccc2)cc1` returned a TGI greater than 100 µM.
For `CCOC(=O)C1=C(N)Oc2ccc(Br)cc2C1C(C#N)C(=O)OCC` (stereo unspecified), the TGI is 41 µM.
The same measure, in the same setting: in the case of `NCCCNCCCCNCCCN` it was greater than 100 µM; in that of `O=c1c2c(-c3ccccc3)onc2n(-c2ccccc2)c(=O)n1-c1ccccc1`, 34.5 µM; in that of `CCOC(=O)c1cc(C2(O)CCN(CC(C)CC)C2=O)c(-c2cc(C)no2)[nH]1` (stereo unspecified), greater than 100 µM.

The test system of the next assay is PC-3 prostate. Put plainly: inhibition of tumour cell growth, NCI panel, 48 h.
For the compound `Cc1ccc(-c2c3c(n(C4OC(CO)C(O)C(O)C4O)c(=S)c2C#N)CC(C)(C)CC3=O)cc1` (stereo unspecified), the TGI is greater than 100 µM.
With `CCOC(=O)c1csc(NC(=O)CN2CCN(C)CC2)n1`, the TGI was greater than 100 µM.
The compound `COc1ccc(CN(Cc2ccc(OC)cc2)C(=O)CC2(O)C=CCC2)cc1` (stereo unspecified) yielded a TGI greater than 100 µM.
Compound `COc1ccc(C(OCC2OC(n3cc(C)c(=O)[nH]c3=O)CC2n2cc(Cn3cc(Br)c(=O)[nH]c3=O)nn2)(c2ccccc2)c2ccccc2)cc1` (stereo unspecified) yielded a TGI greater than 100 µM.
In turn, `CSc1ncnc2c1cnn2CCCCO` displayed a TGI greater than 100 µM.
With `COc1ccc(OC)c(C2Cc3cnc4nc(N)nc(N)c4c3C2)c1` (stereo unspecified), the TGI turned out to be 69.7 µM.
`CC(NNC(=O)CC(=O)N(C(=O)c1ccccc1)c1ccc(Cl)cc1)c1cc2ccccc2oc1=O` (stereo unspecified) returned a TGI greater than 10 µM.
For the compound `O=[N+]([O-])c1ccc(S(=O)(=O)N=Ic2ccccc2)cc1`, the TGI is greater than 100 µM.
The same measure, in the same setting: in the case of `CCOC(=O)C1=C(N)Oc2ccc(Br)cc2C1C(C#N)C(=O)OCC` (stereo unspecified) it was 43.4 µM.
Compound `NCCCNCCCCNCCCN` displayed a TGI greater than 100 µM.
On the same count and under the same terms, in the case of `O=c1c2c(-c3ccccc3)onc2n(-c2ccccc2)c(=O)n1-c1ccccc1` it was 82 µM; in that of `CCOC(=O)c1cc(C2(O)CCN(CC(C)CC)C2=O)c(-c2cc(C)no2)[nH]1` (stereo unspecified), greater than 100 µM.
